The source of these data is US8293731B2, “HIV integrase inhibitors” (Merck Sharp + Dohme Corp., priority 2005, dated 2012).

Molecules are shown by their SMILES.

The subject of the experiment is HIV. Put plainly: Assay for inhibition of HIV replication (spread assay): acute HIV infection of T-lymphoid cells. In kind it is cell-based. Particulars: Human immunodeficiency virus 1, 'less than about'. The method, then: Assays for the inhibition of acute HIV infection of T-lymphoid cells were conducted in accordance with Vacca, J. P. et al., Proc. Natl. Acad. Set USA 1994, 91: 4096. […] For example, the compounds of Examples 1 to 64 were tested in this assay and found to have IC95 values of less than about 10 micromolar.
Consider `CC1C(=O)N(C)c2c3c(c(O)c(=O)n21)C(=O)N(Cc1ccc(F)c(Cl)c1)CC3` (centres unmarked) [Example 8, 8-(3-Chloro-4-fluorobenzyl)-6-hydroxy-1,3-dimethyl-1,8,9,10-tetrahydroimidazo[2,1-a]-2,6-naphthyridine-2,5,7(3H)-trione], for which the IC95 (commonly the concentration at which the effect reaches the 95% level) was less than 10 µM.

For `CN1C(=O)C(C)(C)n2c1c1c(c(O)c2=O)C(=O)N(Cc2ccc(F)c(Cl)c2)CC1` [Example 9, 8-(3-Chloro-4-fluorobenzyl)-6-hydroxy-1,3,3-trimethyl-1,8,9,10-tetrahydroimidazo[2,1a]-2,6-naphthyridine-2,5,7(3H)-trione], the IC95 was less than 10 µM.

As for `CC(=O)OCCN1CCCCn2c(c3c(c(O)c2=O)C(=O)N(Cc2ccc(F)c(Cl)c2)CC3)C1=O` [Example 10, 11-(3-Chloro-4-fluorobenzyl)-9-hydroxy-2-[2-(acetyloxy)ethyl]-3,4,5,6,12,13-hexahydro-2H[1,4]diazocino[2,1-a]-2,6-naphthyridine-1,8,10(11H)-trione], the IC95 was less than 10 µM.

The molecule `O=C1c2c(c3n(c(=O)c2O)CCCCN(CCO)C3=O)CCN1Cc1ccc(F)c(Cl)c1` [Example 11, 11-(3-Chloro-4-fluorobenzyl)-9-hydroxy-2-(2-hydroxyethyl)-3,4,5,6,12,13-hexahydro-2H[1,4]diazocino[2,1-a]-2,6-naphthyridine-1,8,10(11H)-trione] returned a 95% effect concentration (IC95) of less than 10 µM.

As to `O=C(O)CN1CCCCn2c(c3c(c(O)c2=O)C(=O)N(Cc2ccc(F)c(Cl)c2)CC3)C1=O` [Example 12, [11-(3-Chloro-4-fluorobenzyl)-9-hydroxy-1,8,10-trioxo-1,3,4,5,6,8,10,11,12,13-deca-hydro-2H-[1,4]diazocino[2,1-a]-2,6-naphthyridin-2-yl]acetic acid], the 95% effect concentration (IC95) was less than 10 µM.

On to `CN(C)C(=O)CN1CCCCn2c(c3c(c(O)c2=O)C(=O)N(Cc2ccc(F)c(Cl)c2)CC3)C1=O` [Example 13, 2-[11-(3-Chloro-4-fluorobenzyl)-9-hydroxy-1,8,10-trioxo-1,3,4,5,6,8,10,11,12,13-deca-hydro-2H-[1,4]diazocino[2,1-a]-2,6-naphthyridin-2-yl]-N,N-dimethylacetamide], for which the IC95 is less than 10 µM.

Molecule `CNC(=O)CN1CCCCn2c(c3c(c(O)c2=O)C(=O)N(Cc2ccc(F)c(Cl)c2)CC3)C1=O` [Example 14, 2-[11-(3-Chloro-4-fluorobenzyl)-9-hydroxy-1,8,10-trioxo-1,3,4,5,6,8,10,11,12,13-deca-hydro-2H-[1,4]diazocino[2,1-a]-2,6-naphthyridin-2-yl]-N-methylacetamide] came in with an IC95 of less than 10 µM.

As for `NC(=O)CN1CCCCn2c(c3c(c(O)c2=O)C(=O)N(Cc2ccc(F)c(Cl)c2)CC3)C1=O` [Example 15, 2-[11-(3-Chloro-4-fluorobenzyl)-9-hydroxy-1,8,10-trioxo-1,3,4,5,6,8,10,11,12,13-deca-hydro-2H-[1,4]diazocino[2,1-a]-2,6-naphthyridin-2-yl]acetamide], the IC95 is less than 10 µM.

For the molecule `O=C1c2c(c3n(c(=O)c2O)CCCCN(CCN2CCOCC2)C3=O)CCN1Cc1ccc(F)c(Cl)c1` [Example 16, 11-(3-Chloro-4-fluorobenzyl)-9-hydroxy-2-(2-morpholin-4-ylethyl)-3,4,5,6,12,13-hexahydro-2H[1,4]diazocino[2,1a]-2,6-naphthyridine-1,8,10(11H)-trione], the IC95 is less than 10 µM.

In the case of `O=C1c2c(c3n(c(=O)c2O)CCCCN(CCN2CCCC2)C3=O)CCN1Cc1ccc(F)c(Cl)c1` [Example 17, 11-(3-Chloro-4-fluorobenzyl)-9-hydroxy-2-(2-pyrrolidinyl-1-ylethyl)-3,4,5,6,12,13-hexahydro-2H[1,4]diazocino[2,1-a]-2,6-naphthyridine-1,8,10(11H)-trione], the IC95 is less than 10 µM.

Consider `O=C1c2c(c3n(c(=O)c2O)CCCCN(CCN2CCCCC2)C3=O)CCN1Cc1ccc(F)c(Cl)c1` [Example 18, 11-(3-Chloro-4-fluorobenzyl)-9-hydroxy-2-(2-piperidinyl-1-ylethyl)-3,4,5,6,12,13-hexahydro-2H[1,4]diazocino[2,1-a]-2,6-naphthyridine-1,8,10(11H)-trione], for which the IC95 is less than 10 µM.

In the case of `NCCN1CCCCn2c(c3c(c(O)c2=O)C(=O)N(Cc2ccc(F)c(Cl)c2)CC3)C1=O` [Example 19, 11-(3-Chloro-4-fluorobenzyl)-9-hydroxy-2-(2-aminoethyl)-3,4,5,6,12,13-hexahydro-2H[1,4]diazocino[2,1-a]-2,6-naphthyridine-1,8,10(11H)-trione], the IC95 is less than 10 µM.

`CC(=O)NCCN1CCCCn2c(c3c(c(O)c2=O)C(=O)N(Cc2ccc(F)c(Cl)c2)CC3)C1=O` [Example 20, 11-(3-Chloro-4-fluorobenzyl)-9-hydroxy-2-[2-(acetylamino)ethyl]-3,4,5,6,12,13-hexahydro-2H[1,4]diazocino[2,1-a]-2,6-naphthyridine-1,8,10(11H)-trione] returned an IC95 of less than 10 µM.

Consider `CS(=O)(=O)NCCN1CCCCn2c(c3c(c(O)c2=O)C(=O)N(Cc2ccc(F)c(Cl)c2)CC3)C1=O` [Example 21, 11-(3-Chloro-4-fluorobenzyl)-9-hydroxy-2-[2-(methamesulfonylamino)ethyl]-3,4,5,6,12,13-hexahydro-2H[1,4]diazocino[2,1-a]-2,6-naphthyridine-1,8,10(11H)-trione], for which the IC95 is less than 10 µM.

The molecule `COCCN1CCCCn2c(c3c(c(O)c2=O)C(=O)N(Cc2ccc(F)c(Cl)c2)CC3)C1=O` [Example 22, 11-(3-Chloro-4-fluorobenzyl)-9-hydroxy-2-[2-(methoxy)ethyl]-3,4,5,6,12,13-hexahydro-2H[1,4]diazocino[2,1-a]-2,6-naphthyridine-1,8,10(11H)-trione] displayed an IC95 of less than 10 µM.

`CN1CC(=O)CCn2c(c3c(c(O)c2=O)C(=O)N(Cc2ccc(F)c(Cl)c2)CC3)C1=O` [Example 25, 11-(3-Chloro-4-fluorobenzyl)-9-hydroxy-2-methyl-5,6,12,13-tetrahydro-2H[1,4]diazocino[2,1-a]-2,6-naphthyridine-1,4,8,10(3H, 11H)-tetrone] came in with an IC95 of less than 10 µM.

For the molecule `CN1CC(N2CCCC2)CCn2c(c3c(c(O)c2=O)C(=O)N(Cc2ccc(F)c(Cl)c2)CC3)C1=O` (centres unmarked) [Example 26, 11-(3-Chloro-4-fluorobenzyl)-9-hydroxy-2-methyl-4-pyrrolidin-1-yl-3,4,5,6,12,13-hexahydro-2H[1,4]diazocmo[2,1-a]-2,6-naphthyridine-1,8,10(11H)-trione], the IC95 is less than 10 µM.

`CN1CC(N2CCOCC2)CCn2c(c3c(c(O)c2=O)C(=O)N(Cc2ccc(F)c(Cl)c2)CC3)C1=O` (centres unmarked) [Example 27, 11-(3-Chloro-4-fluorobenzyl)-9-hydroxy-2-methyl-4-morpholin-4-yl-3,4,5,6,12,13-hexahydro-2H[1,4]diazocino[2,1-a]-2,6-naphthyridine-1,8,10(11H)-trione] displayed an IC95 of less than 10 µM.

As for `CC1CCCN(C)C(=O)c2c3c(c(O)c(=O)n21)C(=O)N(Cc1ccc(F)c(Cl)c1)CC3` (centres unmarked) [Example 28, 11-(3-Chloro-4-fluorobenzyl)-9-hydroxy-2,6-dimethyl-3,4,5,6,12,13-hexahydro-2H[1,4]diazocino[2,1-a]2,6-naphthyridine-1,8,10(11H)-trione], the IC95 is less than 10 µM.

On to `CC1CCCN(CCO)C(=O)c2c3c(c(O)c(=O)n21)C(=O)N(Cc1ccc(F)c(Cl)c1)CC3` (centres unmarked) [Example 30, 11-(3-Chloro-4-fluorobenzyl)-9-hydroxy-2-(2-hydroxyethyl)-6-methyl-3,4,5,6,12,13-hexahydro-2H[1,4]diazocino[2,1-a]-2,6-naphthyridine-1,8,10(11H)-trione], for which the IC95 is less than 10 µM.

In turn, `CC1CCCN(CCN2CCOCC2)C(=O)c2c3c(c(O)c(=O)n21)C(=O)N(Cc1ccc(F)c(Cl)c1)CC3` (centres unmarked) [Example 32, 11-(3-Chloro-4-fluorobenzyl)-9-hydroxy-2-(2-morpholin-4-ylethyl)-6-methyl-3,4,5,6,12,13-hexahydro-2H[1,4]diazocino[2,1-a]-2,6-naphthyridine-1,8,10(11H)-trione] yielded an IC95 of less than 10 µM.

As for `CC1CCCN(CCN2CCCCC2)C(=O)c2c3c(c(O)c(=O)n21)C(=O)N(Cc1ccc(F)c(Cl)c1)CC3` (centres unmarked) [Example 33, 11-(3-Chloro-4-fluorobenzyl)-9-hydroxy-2-(2-piperidinyl-1-ylethyl)-6-methyl-3,4,5,6,12,13-hexahydro-2H[1,4]diazocino[2,1-a]-2,6-naphthyridine-1,8,10(11H)-trione], the IC95 was less than 10 µM.

Take `CC1CCCN(CCN2CCCC2)C(=O)c2c3c(c(O)c(=O)n21)C(=O)N(Cc1ccc(F)c(Cl)c1)CC3` (centres unmarked) [Example 34, 11-(3-Chloro-4-fluorobenzyl)-9-hydroxy-2-(2-pyrrolidinyl-1-ylethyl)-6-methyl-3,4,5,6,12,13-hexahydro-2H[1,4]diazocino[2,1-a]-2,6-naphthyridine-1,8,10(11H)-trione]: the IC95 is less than 10 µM.

For the molecule `CC1CCCN(CCn2cccn2)C(=O)c2c3c(c(O)c(=O)n21)C(=O)N(Cc1ccc(F)c(Cl)c1)CC3` (centres unmarked) [Example 35, 11-(3-Chloro-4-fluorobenzyl)-9-hydroxy-2-[2-(1H-pyrazol-1-yl)ethyl]-6-methyl-3,4,5,6,12,13-hexahydro-2H[1,4]diazocino[2,1-a]-2,6-naphthyridine-1,8,10(11H)-trione], the IC95 was less than 10 µM.

`CC1CCCN(CCn2ccnc2)C(=O)c2c3c(c(O)c(=O)n21)C(=O)N(Cc1ccc(F)c(Cl)c1)CC3` (centres unmarked) [Example 36, 11-(3-Chloro-4-fluorobenzyl)-9-hydroxy-2-[2-(1H-imidazol-1-yl)ethyl]-6-methyl-3,4,5,6,12,13-hexahydro-2H[1,4]diazocino[2,1-a]-2,6-naphthyridine-1,8,10(11H)-trione] returned an IC95 of less than 10 µM.

With `CN1CCC(O)Cn2c(c3c(c(O)c2=O)C(=O)N(Cc2ccc(F)c(Cl)c2)CC3)C1=O` (centres unmarked) [Example 37, 11(3-Chloro-4-fluorobenzyl)-5,9-dihydroxy-2-methyl-3,4,5,6,12,13-hexahydro-2H[1,4]diazocino[2,1-a]-2,6-naphthyridine-1,8,10(11H)-trione], the 95% effect concentration (IC95) is less than 10 µM.
